# Laboratory results as given in publication PMC6112376, “Comprehensive Analyses and Prioritization of Tox21 10K Chemicals Affecting Mitochondrial Function by in-Depth Mechanistic Studies” (Environmental Health Perspectives, 2018).
# Where two headings read alike, the source gives them in different places.
# Columns and labels:
# [1] = test system: HeLa cells expressing YFP-Parkin; experiment: Parkin translocation assay; assay type: cell-based, human
# HepG2 cells [2] = experiment: ROS-Glo hydrogen peroxide (ROS) assay; assay type: cell-based, human; conditions: for EC50: read-out: ROS (HepG2) EC50
# [3] = test system: Caenorhabditis elegans (Bristol N2); experiment: C. elegans larval development and growth assay
# HepG2 cells [4] = experiment: Oxygen consumption, Seahorse XF24 analyzer; assay type: cell-based, human
# HepG2 cells [5] = conditions: read-out: MMP assays IC50 (µM) qHTS-HepG2; cited from earlier work
# [6] = test system: Caenorhabditis elegans (Bristol N2); conditions: in vivo
# [7] = test system: Nrf2/ARE (ARE-bla HepG2 cells); experiment: ARE β-lactamase reporter gene assay; assay type: cell-based, human
# [8] = test system: Caenorhabditis elegans strain PE255; conditions: in vivo
# [9] = test system: isolated rat liver mitochondria; experiment: Oxygen consumption, Clark-type oxygen electrode; assay type: biochemical
# rat primary hepatocytes [10] = test system: rat primary hepatocytes
# [11] = test system: Caenorhabditis elegans strain PE255; experiment: In vivo C. elegans ATP status assay
# HepG2 cells [12] = experiment: cells; conditions: Homo sapiens
# HepG2 cells [13] = experiment: Intracellular ATP content (cell viability) assay; assay type: cell-based, human
# rat primary hepatocytes [14] = experiment: MMP assay in rat primary hepatocytes
# HepG2 cells [15] = test system: HepG2 cells
# [16] = test system: p53 (p53-bla HCT-116 cells); experiment: p53 β-lactamase reporter gene assay; assay type: cell-based, human
# hNSC = experiment: MMP assay in human neural stem cells (hNSC); assay type: cell-based
smiles,measurement,setting,value
CCOCn1c(-c2ccc(Cl)cc2)c(C#N)c(Br)c1C(F)(F)F [Chlorfenapyr],Parkin recruitment,[1],Active
same,Parkin translocation into mitochondria (in words),[1]; 3 h,patterns similar to antimycin A and FCCP
same,EC50,"HepG2 cells [2]; Homo sapiens, HepG2, 2 h",1930 nM
same,larval growth effect at 0.5μM,[3]; 0.5 µM,severe larval growth arrest
same,minimal effective concentration,"[3]; Caenorhabditis elegans, read-out: LEC EXT: lowest effect concentration for extinction, a measure of nematode size",0.05 µM
same,"effect on oxygen consumption rate, Seahorse (in words)",HepG2 cells [4],effects similar to that of FCCP
same,IC50,HepG2 cells [5],0.07 ± 0.04 µM
same,inhibitory effect at (concentration) on larval growth in the C. elegans assay,"[6]; Bristol N2 (wild type), Caenorhabditis elegans",0.05 µM
same,ARE (HepG2) EC50,"[7]; 16 h incubation, mean±SD of three experiments",Inactive
same,inhibitory effect at (concentration) on ATP content in the C. elegans assay,"[8]; PE255 [sur-5::luc+::gfp, rol-6(su1006)], Caenorhabditis elegans",0.25 µM
same,Potential Mechanism,[9],"Uncoupler at low concentrations (0.16-20 µM), and Uncoupler + inhibitor at high concentration (100 µM)"
same,effect on mitochondrial respiration (in words),[9],effects similar to those of FCCP
same,uncoupler effect at (concentration) in the oxygen consumption assay,[9],0.16 µM
same,"I-ADP, % of control (O2 consumption rate)",[9]; 0.032 µM,99 (43.1) % of control
same,"I-sub, % of control (O2 consumption rate)",[9]; 0.032 µM,116 (15.2) % of control
same,"II-ADP, % of control (O2 consumption rate)",[9]; 0.032 µM,99 (67.2) % of control
same,"II-sub, % of control (O2 consumption rate)",[9]; 0.032 µM,108 (22.5) % of control
same,"I-ADP, % of control (O2 consumption rate)",[9]; 0.16 µM,96 (41.8) % of control
same,"I-sub, % of control (O2 consumption rate)",[9]; 0.16 µM,131 (17.1) % of control
same,"II-ADP, % of control (O2 consumption rate)",[9]; 0.16 µM,112 (75.7) % of control
same,"II-sub, % of control (O2 consumption rate)",[9]; 0.16 µM,119 (24.9) % of control
same,"I-ADP, % of control (O2 consumption rate)",[9]; 0.8 µM,120 (52.1) % of control
same,"I-sub, % of control (O2 consumption rate)",[9]; 0.8 µM,242 (31.7) % of control
same,"II-ADP, % of control (O2 consumption rate)",[9]; 0.8 µM,106 (71.8) % of control
same,"II-sub, % of control (O2 consumption rate)",[9]; 0.8 µM,180 (37.6) % of control
same,"I-ADP, % of control (O2 consumption rate)",[9]; 4 µM,177 (76.8) % of control
same,"I-sub, % of control (O2 consumption rate)",[9]; 4 µM,544 (71.3) % of control
same,"II-ADP, % of control (O2 consumption rate)",[9]; 4 µM,124 (84.2) % of control
same,"II-sub, % of control (O2 consumption rate)",[9]; 4 µM,359 (75.1) % of control
same,"I-ADP, % of control (O2 consumption rate)",[9]; 20 µM,91 (39.4) % of control
same,"I-sub, % of control (O2 consumption rate)",[9]; 20 µM,324 (42.4) % of control
same,"II-ADP, % of control (O2 consumption rate)",[9]; 20 µM,80 (54.0) % of control
same,"II-sub, % of control (O2 consumption rate)",[9]; 20 µM,281 (58.7) % of control
same,"I-ADP, % of control (O2 consumption rate)",[9]; 100 µM,54 (28.6) % of control
same,"I-sub, % of control (O2 consumption rate)",[9]; 100 µM,277 (37.3) % of control
same,"II-ADP, % of control (O2 consumption rate)",[9]; 100 µM,35 (23.6) % of control
same,"II-sub, % of control (O2 consumption rate)",[9]; 100 µM,139 (30.2) % of control
same,MMP assays efficacy (%) Rat Hepatocytes,rat primary hepatocytes [10],-109±23%
same,Rat hepatocytes (efficacy) (MMP),rat primary hepatocytes [10],0.34±0.11 ( −90.8±10.1 ) %
same,minimal effective concentration,"[11]; Caenorhabditis elegans, read-out: LEC LUM: lowest effect concentration for luminescence, a measure of nematode ATP content",0.25 µM
same,IC50,"HepG2 cells [12]; HepG2, 1 h, read-out: HepG2 IC50 Galactose (MMP)",1850 nM
same,IC50,"HepG2 cells [12]; HepG2, 1 h, read-out: HepG2 IC50 Glucose (MMP)",1670 nM
same,IC50,"HepG2 cells [12]; HepG2, read-out: IC50 in HepG2 cells (MMP, tier-one retest)",40 nM
same,Emax,"HepG2 cells [12]; HepG2, read-out: MMP assays efficacy (%) HepG2",109%
same,IC50,"HepG2 cells [13]; Homo sapiens, HepG2, 40 h, read-out: ATP (HepG2, galactose) IC50",7010 nM
same,IC50,"HepG2 cells [13]; Homo sapiens, HepG2, 40 h, read-out: ATP (HepG2, glucose) IC50",6410 nM
same,IC50,"rat primary hepatocytes [14]; Rattus norvegicus, Hepatocyte, 1 h, read-out: IC50 in rat primary hepatocytes (MMP, tier-one retest)",70 nM
same,IC50,"rat primary hepatocytes [14]; Rattus norvegicus, Hepatocyte, 1 h, read-out: Rat hepatocytes IC50 (MMP)",340 nM
"N#CC(C#N)=NNc1ccc(OC(F)(F)F)cc1 [FCCP, carbonyl cyamide 4-(trifluoromethoxy)phenylhydrazone, reference compound]",Parkin recruitment,[1],Active
same,Parkin translocation into mitochondria (in words),[1],significantly increased Parkin translocation into mitochondria
same,HepG2 (efficacy) Galactose (MMP),HepG2 cells [15],1.12±0.33 ( −94.6±1.13 ) %
same,HepG2 (efficacy) Glucose (MMP),HepG2 cells [15],1.05±0.38 ( −95.8±2.94 ) %
same,IC50,HepG2 cells [15]; read-out: HepG2 IC50 Galactose (MMP),1120 nM
same,IC50,HepG2 cells [15]; read-out: HepG2 IC50 Glucose (MMP),1050 nM
same,ROS (HepG2) (efficacy),HepG2 cells [2],2.49±0.45 ( 35.9±5.66 ) %
same,EC50,HepG2 cells [2],2490 nM
same,"LEC EXT: lowest effect concentration for extinction, a measure of nematode size",[3]; in vivo,2.5 µM
same,Activity in oxygen consumption,HepG2 cells [4],Uncoupler+inhibitor
same,p53 (HCT-116) EC50,[16],Inactive
same,"LEC (lowest effect concentration), larval growth assay",[6],< 10 µM
same,ARE (HepG2) EC50,[7],Inactive
same,"LEC (lowest effect concentration), ATP assay",[8],< 10 µM
same,Potential Mechanism,[9],"Uncoupler at lower concentrations (0.032-0.16 µM), and Uncoupler + inhibitor at high concentrations (0.8 - 100 µM)"
same,concentration at which RCR began to decrease,[9],32 nM
same,concentration at which RCR reached unity (complete uncoupling),[9],4 µM
same,"glutamate/malate-driven state 4 respiration, maximal increase over the baseline level",[9],approximately 4 fold
same,"succinate-driven state 4 respiration, maximal response over the baseline level",[9],2.6 fold
same,uncoupler effect at (concentration) in the oxygen consumption assay,[9],0.032 µM
same,"I-ADP, % of control (O2 consumption rate)",[9]; 0.0064 µM,94 (46.6) % of control
same,"I-sub, % of control (O2 consumption rate)",[9]; 0.0064 µM,108 (14.9) % of control
same,"II-ADP, % of control (O2 consumption rate)",[9]; 0.0064 µM,96 (85.4) % of control
same,"II-sub, % of control (O2 consumption rate)",[9]; 0.0064 µM,90 (24.4) % of control
same,"I-ADP, % of control (O2 consumption rate)",[9]; 0.032 µM,100 (49.4) % of control
same,"I-sub, % of control (O2 consumption rate)",[9]; 0.032 µM,131 (18.2) % of control
same,"II-ADP, % of control (O2 consumption rate)",[9]; 0.032 µM,96 (85.4) % of control
same,"II-sub, % of control (O2 consumption rate)",[9]; 0.032 µM,126 (34.2) % of control
same,"I-ADP, % of control (O2 consumption rate)",[9]; 0.16 µM,115 (56.7) % of control
same,"I-sub, % of control (O2 consumption rate)",[9]; 0.16 µM,251 (34.8) % of control
same,"II-ADP, % of control (O2 consumption rate)",[9]; 0.16 µM,97 (86.6) % of control
same,"II-sub, % of control (O2 consumption rate)",[9]; 0.16 µM,260 (70.2) % of control
same,"I-ADP, % of control (O2 consumption rate)",[9]; 0.8 µM,125 (61.6) % of control
same,"I-sub, % of control (O2 consumption rate)",[9]; 0.8 µM,386 (53.5) % of control
same,"II-ADP, % of control (O2 consumption rate)",[9]; 0.8 µM,67 (59.7) % of control
same,"II-sub, % of control (O2 consumption rate)",[9]; 0.8 µM,247 (66.9) % of control
same,"I-ADP, % of control (O2 consumption rate)",[9]; 4 µM,74 (36.5) % of control
same,"I-sub, % of control (O2 consumption rate)",[9]; 4 µM,264 (36.5) % of control
same,"II-ADP, % of control (O2 consumption rate)",[9]; 4 µM,44 (39.6) % of control
same,"II-sub, % of control (O2 consumption rate)",[9]; 4 µM,189 (51.0) % of control
same,"I-ADP, % of control (O2 consumption rate)",[9]; 20 µM,73 (36.0) % of control
same,"I-sub, % of control (O2 consumption rate)",[9]; 20 µM,278 (38.5) % of control
same,"II-ADP, % of control (O2 consumption rate)",[9]; 20 µM,39 (34.6) % of control
same,"II-sub, % of control (O2 consumption rate)",[9]; 20 µM,165 (44.6) % of control
same,"I-ADP, % of control (O2 consumption rate)",[9]; 100 µM,86 (39.1) % of control
same,"I-sub, % of control (O2 consumption rate)",[9]; 100 µM,263 (40.0) % of control
same,"II-ADP, % of control (O2 consumption rate)",[9]; 100 µM,38 (27.2) % of control
same,"II-sub, % of control (O2 consumption rate)",[9]; 100 µM,98 (30.8) % of control
same,Rat hepatocytes (efficacy) (MMP),rat primary hepatocytes [10],0.35±0.06 ( −95.4±4.65 ) %
same,hNSC (efficacy) (MMP),hNSC,0.27±0.08 ( −94.2±2.36 ) %
same,IC50,hNSC; read-out: hNSC IC50 (MMP),270 nM
same,"LEC LUM: lowest effect concentration for luminescence, a measure of nematode ATP content",[11]; in vivo,5 µM
same,"ATP (HepG2, galactose) (efficacy)",HepG2 cells [13],4.25±0.97 ( −91.9±3.75 ) %
same,"ATP (HepG2, glucose) (efficacy)",HepG2 cells [13],2.90±0.72 ( −90.1±9.46 ) %
same,IC50,"HepG2 cells [13]; read-out: ATP (HepG2, galactose) IC50",4250 nM
same,IC50,"HepG2 cells [13]; read-out: ATP (HepG2, glucose) IC50",2900 nM
same,IC50,rat primary hepatocytes [14]; read-out: Rat hepatocytes IC50 (MMP),350 nM
